Measurements published in PubChem BioAssay AID248 (DTP/NCI, 2004).
Several values for one entry are separate records, joined by “and”; a condition that tells them apart may be missing. Equal entries are not always repeated. Inconclusive results and toxic doses are left out. Cut-off read from the data, not from the text of the source: active = T/C of 150% or more; inactive = T/C below 125%.

Test system: L1210 leukemia ip in BDF1 mice, survival T/C
Test: NCI In Vivo Anticancer Drug Screen. Data for tumor model L1210 Leukemia (intraperitoneal) in B6D2F1 (BDF1) mice
Details: endpoint: mean survival time, higher = longer survival
In short: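 Survival endpoint. Drug-treated group vs vehicle group, expressed as T divided by C. Tumor passaged by transplantation.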

[1] = dose: 25.0 mg/kg/injection, schedule: Q01DX009 (ip), vehicle: Klucel (hydroxypropylcellulose) (HPC)
[2] = dose: 50.0 mg/kg/injection, schedule: Q01DX009 (ip), vehicle: Klucel (hydroxypropylcellulose) (HPC)
[3] = dose: 100.0 mg/kg/injection, schedule: Q01DX009 (ip), vehicle: Klucel (hydroxypropylcellulose) (HPC)
[4] = dose: 100.0 mg/kg/injection, schedule: Q04DX003 (ip), vehicle: Klucel (hydroxypropylcellulose) (HPC)
[5] = dose: 200.0 mg/kg/injection, schedule: Q01DX009 (ip), vehicle: Klucel (hydroxypropylcellulose) (HPC)
[6] = dose: 200.0 mg/kg/injection, schedule: Q04DX003 (ip), vehicle: Klucel (hydroxypropylcellulose) (HPC)
[7] = dose: 400.0 mg/kg/injection, schedule: Q04DX003 (ip), vehicle: Klucel (hydroxypropylcellulose) (HPC)
[8] = dose: 100.0 mg/kg/injection, schedule: Q04DX003 (ip), vehicle: saline
[9] = dose: 200.0 mg/kg/injection, schedule: Q04DX003 (ip), vehicle: saline
[10] = dose: 400.0 mg/kg/injection, schedule: Q04DX003 (ip), vehicle: saline
[11] = dose: 50.0 mg/kg/injection, schedule: Q01DX001 (ip), vehicle: saline
[12] = dose: 100.0 mg/kg/injection, schedule: Q01DX001 (ip), vehicle: saline
[13] = dose: 200.0 mg/kg/injection, schedule: Q01DX001 (ip), vehicle: saline
[14] = dose: 400.0 mg/kg/injection, schedule: Q01DX001 (ip), vehicle: saline
[15] = dose: 100.0 mg/kg/injection, schedule: Q04DX002 (ip), vehicle: Klucel (hydroxypropylcellulose) (HPC)
[16] = dose: 200.0 mg/kg/injection, schedule: Q04DX002 (ip), vehicle: Klucel (hydroxypropylcellulose) (HPC)

Measured: T/C

CCc1ccccc1NC(=O)Nc1ccc(OC)cc1
inactive: [1] 90 % of control | [2] 95 % of control | [3] 93 % of control | [4] 94 % of control | [5] 86 % of control | [6] 91 % of control | [7] 96 % of control

c1ccc2c3c(ccc2c1)Sc1ccc2ccccc2c1N3
inactive: dose: 100.0 mg/kg/injection, schedule: Q01DX009 (ip), vehicle: saline 102 % of control | [8] 97 % of control | dose: 200.0 mg/kg/injection, schedule: Q01DX009 (ip), vehicle: saline 98 % of control | [9] 111 % of control | dose: 400.0 mg/kg/injection, schedule: Q01DX009 (ip), vehicle: saline 93 % of control | [10] 95 % of control

CCCN(CCC)C(=O)SCC
inactive: dose: 100.0 mg/kg/injection, schedule: Q01DX001 (ip), vehicle: saline with Tween-80 101 % of control | dose: 100.0 mg/kg/injection, schedule: Q04DX003 (ip), vehicle: saline with Tween-80 101 % of control and 105 % of control | dose: 200.0 mg/kg/injection, schedule: Q01DX001 (ip), vehicle: saline with Tween-80 97 % of control | dose: 200.0 mg/kg/injection, schedule: Q04DX003 (ip), vehicle: saline with Tween-80 100 % of control and 101 % of control | dose: 400.0 mg/kg/injection, schedule: Q01DX001 (ip), vehicle: saline with Tween-80 97 % of control | dose: 400.0 mg/kg/injection, schedule: Q04DX003 (ip), vehicle: saline with Tween-80 110 % of control and 117 % of control

[N-]=[N+]=Nc1ccc(S(=O)(=O)Nc2ncccn2)cc1
inactive: dose: 100.0 mg/kg/injection, schedule: Q01DX001 (ip), vehicle: carboxymethylcellulose (CMC) 113 % of control | dose: 100.0 mg/kg/injection, schedule: Q01DX009 (ip), vehicle: carboxymethylcellulose (CMC) 93 % of control | dose: 100.0 mg/kg/injection, schedule: Q04DX002 (ip), vehicle: carboxymethylcellulose (CMC) 100 % of control and 108 % of control | dose: 100.0 mg/kg/injection, schedule: Q04DX003 (ip), vehicle: carboxymethylcellulose (CMC) 104 % of control | dose: 200.0 mg/kg/injection, schedule: Q01DX001 (ip), vehicle: carboxymethylcellulose (CMC) 108 % of control | dose: 200.0 mg/kg/injection, schedule: Q01DX009 (ip), vehicle: carboxymethylcellulose (CMC) 88 % of control | dose: 200.0 mg/kg/injection, schedule: Q04DX002 (ip), vehicle: carboxymethylcellulose (CMC) 102 % of control and 103 % of control | dose: 200.0 mg/kg/injection, schedule: Q04DX003 (ip), vehicle: carboxymethylcellulose (CMC) 96 % of control | dose: 400.0 mg/kg/injection, schedule: Q01DX001 (ip), vehicle: carboxymethylcellulose (CMC) 90 % of control | dose: 400.0 mg/kg/injection, schedule: Q01DX009 (ip), vehicle: carboxymethylcellulose (CMC) 98 % of control | dose: 400.0 mg/kg/injection, schedule: Q04DX002 (ip), vehicle: carboxymethylcellulose (CMC) 103 % of control and 107 % of control | dose: 400.0 mg/kg/injection, schedule: Q04DX003 (ip), vehicle: carboxymethylcellulose (CMC) 110 % of control

Cc1cc(Cl)ccc1OCCCC(=O)O
inactive: [11] 102 % of control | [12] 98 % of control | [13] 98 % of control | [14] 104 % of control

CCO/C=C1\SC(=S)N(c2cccc(C)c2)C1=O
inactive: [3] 112 % of control | [4] 101 % of control | [5] 87 % of control | [6] 113 % of control | [7] 95 % of control

CC12CCC(=O)C=C1CC(Sc1ccc(N(CCCl)CCCl)cc1)C1C2CCC2(C)C(O)CCC12 (stereo not given)
inactive: dose: 100.0 mg/kg/injection, schedule: Q01DX001 (sc), vehicle: steriod suspending solution 108 % of control | dose: 200.0 mg/kg/injection, schedule: Q01DX001 (sc), vehicle: steriod suspending solution 108 % of control | dose: 400.0 mg/kg/injection, schedule: Q01DX001 (sc), vehicle: steriod suspending solution 100 % of control

CC(C)(C)OOC(=O)c1ccccc1O
inactive: dose: 100.0 mg/kg/injection, schedule: Q01DX009 (ip), vehicle: saline sonified 113 % of control | [8] 106 % of control | [9] 106 % of control | [10] 110 % of control

CCNC(=O)NC1C(O)OC(CO)C(O)C1O (stereo not given)
inactive: [12] 96 % of control | [8] 99 % of control | [13] 103 % of control | [9] 99 % of control | [14] 102 % of control | [10] 95 % of control

CSCC(NC(=O)OCc1ccccc1)C(=O)O (stereo not given)
inactive: dose: 50.0 mg/kg/injection, schedule: Q01DX009 (ip), vehicle: saline with Tween-80 111 % of control | dose: 100.0 mg/kg/injection, schedule: Q01DX009 (ip), vehicle: saline with Tween-80 111 % of control | dose: 200.0 mg/kg/injection, schedule: Q01DX009 (ip), vehicle: saline with Tween-80 101 % of control

O=C(CS)NNC(=O)CS
inactive: [15] 93 % of control | [8] 104 % of control | [16] 96 % of control | [9] 110 % of control | dose: 400.0 mg/kg/injection, schedule: Q04DX002 (ip), vehicle: Klucel (hydroxypropylcellulose) (HPC) 104 % of control | [10] 86 % of control

Cc1ccc(Cl)nn1
inactive: [12] 108 % of control | [13] 109 % of control

Cc1ccc(S(=O)(=O)OCCN(CCO)c2cn(C(c3ccccc3)(c3ccccc3)c3ccccc3)c(=O)n(C(c3ccccc3)(c3ccccc3)c3ccccc3)c2=O)cc1
inactive: [11] 93 % of control | [12] 93 % of control | [13] 93 % of control

CCCCCC(Oc1ccc(Cl)cc1C)C(=O)O (stereo not given)
inactive: [15] 107 % of control | [16] 107 % of control

O=NN1CCCCCCC1C(=O)O (stereo not given)
inactive: [12] 102 % of control | [13] 98 % of control | [14] 102 % of control

Cc1nc(N)nc2c1CCC(=O)N2
inactive: [4] 100 % of control | [6] 89 % of control | [7] 94 % of control

O=C1C=C(Br)C(=O)C1(Br)Br
inactive: dose: 75.0 mg/kg/injection, schedule: Q01DX001 (sc), vehicle: olive oil, sesame oil, peanut oil 117 % of control

Oc1ccccc1/C=N\N=C\c1ccccc1O
inactive: dose: 50.0 mg/kg/injection, schedule: Q04DX002 (ip), vehicle: Klucel (hydroxypropylcellulose) (HPC) 93 % of control | dose: 100.0 mg/kg/injection, schedule: Q01DX001 (ip), vehicle: other 97 % of control | [15] 101 % of control | dose: 200.0 mg/kg/injection, schedule: Q01DX001 (ip), vehicle: other 103 % of control | [16] 112 % of control | dose: 400.0 mg/kg/injection, schedule: Q01DX001 (ip), vehicle: other 94 % of control

CCOP1(=O)OCC(C)(C)CO1
inactive: [12] 98 % of control | [13] 96 % of control | [14] 102 % of control

CCO/C=N\c1[nH]ncc1C#N
inactive: [2] 93 % of control | [3] 107 % of control | [5] 103 % of control

O=[N+]([O-])c1ccc(N(CCO)CCO)cc1
inactive: [11] 96 % of control | [12] 100 % of control | [13] 100 % of control | [14] 96 % of control

Cc1ccc(NC(=O)Oc2cccnc2)cc1
inactive: dose: 12.5 mg/kg/injection, schedule: Q01DX009 (ip), vehicle: Klucel (hydroxypropylcellulose) (HPC) 107 % of control | [1] 107 % of control | [2] 96 % of control
